By EC50 is commonly meant the concentration at which the effect is half-maximal. High values mean weaker potency, low ones greater potency.

Like-named read-outs stand apart in the source and are kept apart here.

This experiment concerns the target T1, KCNQ2/3 channels (Homo sapiens, UniProt O43525+O43526).
T1 construct: expressed in transfected cells; host or cells: CHO-K1 cells kept under selection antibiotics
The experiment is described as follows: Fluorescence assay using a voltage sensitive dye (fluorimetry). In kind it is cell-based. The method, then:
Pharmacological Experiments Method I. Fluorescence Assay Using a Voltage Sensitive Dye (Fluorimetry)
[…] CHO-K1 cells expressing KCNQ2/3 channels are cultivated adherently at 37° C., 5% CO2 and 95% humidity in cell culture bottles (e.g. 80 cm^2 TC flasks, Nunc) with DMEM-high glucose (Sigma Aldrich, D7777) including 10% FCS (PAN Biotech, e.g. 3302-P270521) or alternatively MEM Alpha Medium (1×, liquid, Invitrogen, #22571), 10% fetal calf serum (FCS) (Invitrogen, #10270-106, heat-inactivated) and the necessary selection antibiotics.
Before being sown out for the measurements, the cells are washed with 1×DPBS buffer Ca^2+/Mg^2+-free (e.g. Invitrogen, #14190-094) and detached from the bottom of the culture vessel by using Accutase (PAA Laboratories, #L11-007) (incubation with Accutase for 15 min at 37° C.). The cell number is determined using a CASY™ cell counter (TCC, Schärfe System). Depending on the optimal density for each individual cell line, 20,000-30,000 cells/well/100 μl are seeded onto 96-well Corning™ CellBIND™ assay plates (Flat Clear Bottom Black Polystyrene Microplates, #3340). Freshly seeded cells are then left to settle for one hour at room temperature, followed by incubation for 24 hours at 37° C., 5% CO2 and 95% humidity.
The voltage-sensitive fluorescent dye from the Membrane Potential Assay Kit (Red™ Bulk format part R8123 for FLIPR, MDS Analytical Technologies™) is prepared by dissolving the contents of one vessel Membrane Potential Assay Kit Red Component A in 200 ml of extracellular buffer (ES buffer, 120 mM NaCl, 1 mM KCl, 10 mM HEPES, 2 mM CaCl2, 2 mM MgCl2, 10 mM glucose; pH 7.4). After removal of the nutrient medium, the cells are washed once with 200 μl of ES buffer, then loaded for 45 min at room temperature in 100 μl of dye solution in the dark.
Fluorescence measurements are carried out in a BMG Labtech FLUOstar™, BMG Labtech NOVOstar™ or BMG Labtech POLARstar™ instrument (525 nm excitation, 560 nm emission, Bottom Read mode). After incubation with the dye, 50 μl of the test substances in the desired concentrations, or 50 μl of ES buffer for control purposes, are applied to the wells of the assay plate and incubated for 30 min at room temperature while being shielded from light. The fluorescence intensity of the dye is then measured for 5 min and the fluorescence value F1 of each well is thus determined at a given, constant time. 15 μl of a KCl solution are then added to each well (final concentration of potassium ions 92 mM). The change in fluorescence intensity is subsequently monitored until all the relevant values have been obtained (mainly 5-30 min). At a given time post KCl application, a fluorescence value F2 is determined, in this case at the time of the fluorescence peak.
For calculation, the fluorescence intensity F2 is corrected for the fluorescence intensity F1, and the activity (ΔF/F) of the target compound on the potassium channel is determined as follows:
In order to determine whether a substance has agonistic activity,
A substance has an agonistic activity on the potassium channel if
[formula] increases dose dependently.
Calculations of EC50 and IC50 values are carried out with the aid of ‘Prism v4.0’ software (GraphPad Software™).

Setting [1] is: CHO-K1 cells expressing KCNQ2/3 channels.
Where [2] appears, read: CHO-K1 cells expressing KCNQ2/3 channels, relative to retigabine (RTG) = 100%, read-out: Fluorimetry % efficacy (RTG = 100%).

In turn, `Cc1c(C(=O)NCc2ccc(F)cc2)c(=S)n(C)c2cc(C(F)(F)F)ccc12` [Example 36, N-[(4-fluorophenyl)-methyl]-1,4-dimethyl-2-thioxo-7-(trifluoromethyl)-1H-quinoline-3-carboxylic acid amide] returned an EC50 under setting [1] of 126 nM. Also, the Emax under setting [2] was 99%. The corresponding values for `CCC(COC)n1c(=O)c(C(=O)NCc2cccc(F)c2)c(C)c2ccc(C(F)(F)F)cc21` (centres unmarked) [Example 30, N-[(3-fluorophenyl)-methyl]-1-[1-(methoxymethyl)-propyl]-4-methyl-2-oxo-7-(trifluoromethyl)-1H-quinoline-3-carboxylic acid amide] are 193 nM and 133%. For the compound `Cc1c(C(=O)NCc2cccc(F)c2)c(=O)n(C2CCOCC2)c2cc(C(F)(F)F)ccc12` [Example 44, N-[(3-fluorophenyl)-methyl]-4-methyl-2-oxo-1-tetrahydro-pyran-4-yl-7-(trifluoromethyl)-1H-quinoline-3-carboxylic acid amide], the Emax under setting [2] came out at 36%. For `CCCCn1c(=O)c(C(=O)NCc2cccc(F)c2)c(C)c2ccc(C(F)(F)F)cc21` [Example 2, 1-butyl-N-[(3-fluorophenyl)-methyl]-4-methyl-2-oxo-7-(trifluoromethyl)-1H-quinoline-3-carboxylic acid amide], the response under setting [1] was half-maximal at 235 nM (EC50). Besides, under setting [2], the Emax was determined as 90%. As to “2-[3-[(3-fluorophenyl)-methyl-carbamoyl]-4-methyl-2-oxo-7-(trifluoromethyl)-1H-quinolin-1-yl]-acetic acid methyl ester [Example 26]”, the EC50 under setting [1] was 1010 nM. For the same compound, the “Fluorimetry % efficacy (RTG = 100%)” value (CHO-K1 cells expressing KCNQ2/3 channels, relative to retigabine (RTG) = 100%) amounted to 108%. Turning to `COC(C)Cn1c(=O)c(C(=O)NCc2cccc(F)c2)c(C)c2ccc(C(F)(F)F)cc21` (centres unmarked) [Example 43, N-[(3-fluorophenyl)-methyl]-1-(2-methoxy-propyl)-4-methyl-2-oxo-7-(trifluoromethyl)-1H-quinoline-3-carboxylic acid amide], the EC50 under setting [1] stood at 1680 nM. The Emax under setting [2] came to 100%. For the compound `COCC(COC)n1c(=O)c(C(=O)NCc2cccc(F)c2)c(C)c2ccc(C(F)(F)F)cc21` [Example 31, N-[(3-Fluorophenyl)-methyl]-1-[2-methoxy-1-(methoxymethyl)-ethyl]-4-methyl-2-oxo-7-(trifluoromethyl)-1H-quinoline-3-carboxylic acid amide], the Emax (CHO-K1, read-out: Fluorimetry % efficacy (RTG = 100%)) is 46%. For the same compound, the EC50 under setting [1] is 80 nM. In the case of `COCCn1c(=O)c(C(=O)NCc2cccc(F)c2)c(C)c2ccc(C#N)cc21` [Example 22, 7-cyano-N-[(3-fluorophenyl)-methyl]-1-(2-methoxy-ethyl)-4-methyl-2-oxo-1H-quinoline-3-carboxylic acid amide], it took 3140 nM to reach a half-maximal effect under setting [1] (EC50). Moreover, the Emax under setting [2] was 102%.

Consider `Cc1c(C(=O)NCc2cccc(F)c2)c(=O)n(CCCC(C)C)c2cc(C(F)(F)F)ccc12` [Example 13, N-[(3-fluorophenyl)-methyl]-4-methyl-1-(4-methyl-pentyl)-2-oxo-7-(trifluoromethyl)-1H-quinoline-3-carboxylic acid amide], for which the Emax under setting [2] was 3%.

`Cc1c(C(=O)NCc2cccc(F)c2)c(=O)n(C(C)C)c2cc(C(F)(F)F)ccc12` [Example 40, N-[(3-fluorophenyl)-methyl]-1-isopropyl-4-methyl-2-oxo-7-(trifluoromethyl)-1H-quinoline-3-carboxylic acid amide] registered an EC50 under setting [1] of 75 nM. For the same compound, the Emax under setting [2] was 145%. The matching figures for `COc1c(C(=O)NCc2cccc(F)c2)c(=O)n(C)c2cc(C(F)(F)F)ccc12` [Example 45, N-[(3-fluorophenyl)-methyl]-4-methoxy-1-methyl-2-oxo-7-(trifluoromethyl)-1H-quinoline-3-carboxylic acid amide]: 215 nM and 190%.

The values above are taken from patent publication US8653102B2, “Substituted 2-oxo- and 2-thioxo-dihydroquinoline-3-carboxamides as KCNQ2/3 modulators” (Gruenenthal GmbH, priority 2010, dated 2014).
